Measured values published in patent US20230047208A1, “RNA Splicing Modulation” (The General Hospital Corporation, priority 2020, published 2023).

Legend:
[1] = tested on: PARP6 minigene, Exon X; assay: PARP6 minigene splicing assay, RT-PCR; assay type: cell-based; details: mutated PARP6
From the text: FIGS. 3E-3G Upper row: The length of the exon triplets cloned into minigenes constructs are shown. The flanking sequences of the 5′ splice sites of Exon X are shown in LOGO plots. The height of each nucleotide was estimated using in silico saturated mutagenesis, with the corresponding closely matched CNN Motifs indicated below the plots. […] Middle row: Splicing changes for Exon X in both wildtype and mutated exon triplets, predicted by the CNN model (left) and measured by RT-PCR of the minigene (right). The RT-PCR experiments were performed in duplicate and independently repeated three times for each minigene to make the bar plots (two-tailed, unpaired Student's t test). Bottom row: Example of splicing changes induced by treatment with Compound (I) in the minigene splicing assays. The percentage for Exon X inclusion is indicated beneath each lane, from treated and untreated conditions in both wildtype and mutated minigenes. […] The statistical significance, as shown in FIGS. 3E-3G, was determined via two-tailed, unpaired Student's test: *p<0.05; **p<0.01; ***p<0.001. […]
Wild-type and mutant double-stranded DNA (dsDNA) fragments, selected based on low nucleotide length and exon-skipping probability, were ordered through GENEWIZ (FragmentGENE). […] Concentrations were determined using a nanodrop spectrometer.

[2] = Tolerability and weight assessment of TgFD9 mice; assay type: in vivo; details: oral gavage once daily for 7 days, 10, 30, 60 or 100 mg/kg
Procedure: FIGS. 7C-E show the relative expression of full-length (FL) and Δ20 ELP1 mRNA (left graphs), and ELP1 protein quantification (right graphs) in kidney (FIG. 7C), heart (FIG. 7D) and skin (FIG. 7E) after oral doses of Compound (I) ranging from 10 to 100 mg/kg in adult transgenic TgFD9 mouse (n=4-6 mice in each treatment group). Comparisons were done within the same group, against the vehicle-treated mice. […] The levels of compound were measured using mass spectrometry. In the figure, *p<0.05; **p<0.01; ***p<0.001.
Compound (I) was evaluated in vivo to determine whether splicing correction can lead to a concomitant increase in ELP1 protein. In brief, TgFD9 transgenic mice, which carry the human ELP1 gene with a Exon 20 splice mutation, were treated by oral gavage once daily for 7 days with Compound (I) as a suspension in 0.5% HPMC, 0.1% Tween 80 at a dose of 10, 30, 60 or 100 mg/kg. The mice used for this study were housed in an animal facility, provided with access to food and water ad libitum, and maintained on a 12-hour light/dark cycle. For routine genotyping, genomic DNA was prepared from tail biopsies and PCR was carried out to detect the TgFD9 transgene using the following primers—forward 5′-[…]-3′; reverse, 5′-[…]-3′. Mice were sacrificed 1 hour after the last dose.
The level of splicing correction correlated with Compound (I) tissue distribution (FIGS. 7F-7G).

Clc1nc(NCc2ccncc2)c2cc[nH]c2n1 [Compound (I), 2-chloro-N-(pyridin-4-ylmethyl)-7H-pyrrolo[2,3-d]pyrimidin-4-amine]
Exon X splicing response confirmed by RT-PCR [1]: inclusion
tolerability, weight loss, adverse effects [2]: well tolerated with no weight loss or adverse effects observed
